Earlier results on one substance are cited in EP4729553A1, “BLOCK POLYMER, AND COLORING MATERIAL DISPERSION AND INK COMPOSITION USING SAME” (Mikuni Shikiso Kabushiki Kaisha, priority 2023, dated 2024).

For this data set the following is noted: monomer, trade product data.

As a reminder, the LogP is a log measure of how a compound divides between an organic and an aqueous phase. In the case of “ethoxylated o-phenylphenol acrylate [A-LEN10]”, the LogP is recorded as 3.98.
